According to patent US20230391760A1, “HETEROCYCLIC GLP-1 AGONISTS” (Gasherbrum Bio, Inc., priority 2020, published 2023):

Molecular target: GLP-1 Receptor (Homo sapiens, UniProt P43220)
Assay: GLP-1R agonist cAMP stimulation assay (HEK293/GLP1R/CRE-LUC cells, cAMP dynamic 2 Kit)
Type: cell-based
Settings: HEK293/CRE-Luc cell line stably expressing the GLP-1 Receptor, 30 min at 37° C.
Outline: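 HEK293 cells stably expressing human GLP-1R with CRE-luciferase, 1000 cells/well in DPBS with 0.5 mM IBMX and 0.1% BSA, treated with compound in 1/2-log serial dilution for 30 min at 37 °C. cAMP then detected by HTRF (cAMP-d2 plus anti-cAMP cryptate), 1 h at room temperature in the dark.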

GLP-1 Receptor, sequence (P43220 24-463, species assumed): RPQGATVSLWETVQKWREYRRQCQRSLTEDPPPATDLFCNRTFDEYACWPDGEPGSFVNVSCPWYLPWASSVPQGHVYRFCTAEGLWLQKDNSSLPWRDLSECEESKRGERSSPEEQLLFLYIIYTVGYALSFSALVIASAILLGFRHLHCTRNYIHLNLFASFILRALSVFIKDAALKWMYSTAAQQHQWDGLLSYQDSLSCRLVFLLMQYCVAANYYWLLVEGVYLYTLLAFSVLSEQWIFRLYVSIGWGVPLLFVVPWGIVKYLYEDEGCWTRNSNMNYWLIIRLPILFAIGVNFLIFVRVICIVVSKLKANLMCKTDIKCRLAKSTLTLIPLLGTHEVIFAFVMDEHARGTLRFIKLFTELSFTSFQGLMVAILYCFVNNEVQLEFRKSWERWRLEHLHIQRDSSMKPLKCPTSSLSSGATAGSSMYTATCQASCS

EC50	Compound
510 pM	N#Cc1ccc(COc2cc(C3CCN(Cc4nc5cc(-c6nnc(C(F)(F)F)[nH]6)nnc5n4C[C@@H]4CCO4)CC3)ccc2F)c(F)c1 [Compound 521a, 3-fluoro-4-[(2-fluoro-5-{1-[(7-{[(2S)-oxetan-2-yl]methyl}-3-[5-(trifluoromethyl)-4H-1,2,4-triazol-3-yl]-7H-imidazo[4,5-c]pyridazin-6-yl)methyl]piperidin-4-yl}phenoxy)methyl]benzonitrile]
460 pM	C[C@H]1CN(c2ccc(F)c(OCc3ccc(C#N)cc3F)c2)CCN1Cc1nc2cc(-c3nnc(C(F)(F)F)[nH]3)nnc2n1C[C@@H]1CCO1 [Compound 522a, 3-fluoro-4-({2-fluoro-5-[(3S)-3-methyl-4-[(7-{[(2S)-oxetan-2-yl]methyl}-3-[5-(trifluoromethyl)-4H-1,2,4-triazol-3-yl]-7H-imidazo[4,5-c]pyridazin-6-yl)methyl]piperazin-1-yl]phenoxy}methyl)benzonitrile]
140 pM	Fc1cc(Cl)ccc1[C@H]1COc2cccc(C3CCN(Cc4nc5cc(-c6nnc(C(F)(F)F)[nH]6)nnc5n4C[C@@H]4CCO4)CC3)c2O1 [Compound 523a, 4-[(3S)-3-(4-chloro-2-fluorophenyl)-2,3-dihydro-1,4-benzodioxin-5-yl]-1-[(7-{[(2S)-oxetan-2-yl]methyl}-3-[5-(trifluoromethyl)-4H-1,2,4-triazol-3-yl]-7H-imidazo[4,5-c]pyridazin-6-yl)methyl]piperidine]
450 pM	CC1(c2ccc(Cl)cn2)Oc2c(F)ccc(C3CCN(Cc4nc5cc(-c6nnc(C(F)(F)F)[nH]6)nnc5n4C[C@@H]4CCO4)CC3)c2O1 (stereo partly drawn) [Compound 524a, 5-chloro-2-[4-fluoro-2-methyl-7-{1-[(7-{[(2S)-oxetan-2-yl]methyl}-3-[5-(trifluoromethyl)-4H-1,2,4-triazol-3-yl]-7H-imidazo[4,5-c]pyridazin-6-yl)methyl]piperidin-4-yl}-2H-1,3-benzodioxol-2-yl]pyridine]
26 pM	C[C@H]1CN(c2nc(OCc3ccc(Cl)cc3F)ccc2F)CCN1Cc1nc2cc(-c3nnc(C(F)(F)F)[nH]3)ncc2n1C[C@@H]1CCO1 [Compound 525a, (2S)-4-{6-[(4-chloro-2-fluorophenyl)methoxy]-3-fluoropyridin-2-yl}-2-methyl-1-[(3-{[(2S)-oxetan-2-yl]methyl}-6-[5-(trifluoromethyl)-4H-1,2,4-triazol-3-yl]-3H-imidazo[4,5-c]pyridin-2-yl)methyl]piperazine]
17 pM	N#Cc1nnc(-c2cc3nc(CN4CCC(c5cccc(OCc6ccc(Cl)cc6F)n5)CC4)n(C[C@@H]4CCO4)c3nn2)[nH]1 [Compound 526a, 5-{6-[(4-{6-[(4-chloro-2-fluorophenyl)methoxy]pyridin-2-yl}piperidin-1-yl)methyl]-7-{[(2S)-oxetan-2-yl]methyl}-7H-imidazo[4,5-c]pyridazin-3-yl}-4H-1,2,4-triazole-3-carbonitrile]
33 pM	C[C@H]1CN(c2ncc(F)c(OCc3ccc(Cl)cc3F)n2)CCN1Cc1nc2cc(-c3nnc(C(F)(F)F)[nH]3)cnc2n1C[C@@H]1CCO1 [Compound 527a, 4-[(4-chloro-2-fluorophenyl)methoxy]-5-fluoro-2-[(3S)-3-methyl-4-[(3-{[(2S)-oxetan-2-yl]methyl}-6-[5-(trifluoromethyl)-4H-1,2,4-triazol-3-yl]-3H-imidazo[4,5-b]pyridin-2-yl)methyl]piperazin-1-yl]pyrimidine]
